The nature of experiment [1]: Inhibition of EML4/ALK (unknown origin) transfected in mouse BAF3 cells assessed as reduction in cell viability after 72 hrs by MTS assay. Background: Tetrazolium assays rely on reduction of a dye to a coloured formazan, in cell work by metabolically active cells.
Experiment [2] in a line: Inhibition of EGFR T790M/L858R double mutant (unknown origin) transfected in mouse BAF3 cells assessed as reduction in cell viability after 72 hrs by MTS assay.
Experiment [3] can be described thus: Inhibition of EGFR L858R mutant (unknown origin) transfected in mouse BAF3 cells assessed as reduction in cell viability after 72 hrs by MTS assay.

Regarding `C=CC(=O)Nc1cccc(Oc2nc(Nc3ccc(N4CCN(C)CC4)cc3OC)ncc2Cl)c1`, the EC50 – broadly, the concentration that produces a half-maximal response – in experiment [1] came to 6.26 µM. Take `CCC(=O)Nc1cc(Nc2ncc(Cl)c(Nc3ccccc3S(=O)(=O)C(C)C)n2)c(OC)cc1N(C)CCN(C)C`: the EC50 in experiment [2] came to 0.972 µM; in experiment [3], 0.666 µM. For the compound `C=CC(=O)Nc1cc(Nc2nccc(Nc3ccccc3P(C)(C)=O)n2)c(OC)cc1N(C)CCN(C)C`, in experiment [1], the EC50 is above 5 µM. In the case of `C=CC(=O)Nc1cc(Nc2nccc(-c3cn(C)c4ccccc34)n2)c(OC)cc1N(C)CCN(C)C` [AZD-9291], in experiment [1], the EC50 amounted to 1.75 µM.

Values taken from BindingDB's records for doi:10.1016/j.ejmech.2017.04.079 (Harvard Medical School, 2017).
